Earlier results on two molecules are cited in patent EP4241780A1, “ENRICHED POLYPHENOLIC FRACTIONS OF ARONIA EXTRACTS AND USES THEREOF” (Diana, priority 2022, dated 2023).

This data set deals with HepG2 cells. The settings on record: 100% pure compounds, reference [31], Figure 4.

SMILES strings stand for the structures.

With `O=c1c(O)c(-c2ccc(O)c(O)c2)oc2cc(O)cc(O)c12` [quercetin], the “EC50 intracellular antioxidant activity of pure compounds” value was 7 µg/mL.

`Oc1ccc(C=Cc2cc(O)cc(O)c2)cc1` [resveratrol]: the “EC50 intracellular antioxidant activity of pure compounds” value was 14.8 µg/mL.
